We go through 13 compounds from ChEMBL document CHEMBL5390243, “Catecholamine Derivatives: Natural Occurrence, Structural Diversity, and Biological Activity” (J Nat Prod, 2023).

≈ marks a conversion by molar mass, not a printed value.

In assay [1] the test system is Trypanosoma cruzi. Nature of the assay: Antiprotozoal activity against Trypanosoma cruzi Y strain infected in Swiss albino mouse model assessed as reduction in parasitemia measured after 24 hrs. The class given is functional, organism-based.
Assay [2] concerns the target Beta-2 adrenergic receptor (Homo sapiens) (UniProt P07550). Nature of the assay: Agonist activity at ARbeta2 (unknown origin) expressed in CHO-K1 cells co-expressing G alpha 15 assessed as inhibition of isoproterenol induced calcium response upto 100 uM incubated for 10 mins by calcium mobilization assay relative to control. Format: functional, cell-based. The arrangement: scale not given: the % may be the effect or the level left.

The nature of assay [3]: Antioxidant activity assessed as DPPH radical scavenging activity measured after 30 mins. The class given is functional.
Assay [4] deals with Beta-1 adrenergic receptor (Homo sapiens) (UniProt P08588). The assay is described as follows: Agonist activity at ARbeta1 (unknown origin) expressed in CHO-K1 cells co-expressing G alpha 15 assessed as inhibition of isoproterenol induced calcium response upto 100 uM incubated for 10 mins by calcium mobilization assay relative to control. The note with it: filed as agonist. Format: functional, cell-based. For orientation: Calcium assays in cells follow changes in intracellular calcium, usually with a dye or a luminescent sensor.

Assay [5] concerns the target Alpha-1A adrenergic receptor (Homo sapiens) (UniProt P35348). The assay is described as follows: Antagonist activity at ARalpha1A (unknown origin) expressed in HEK293 cells co-expressing Galpha16 assessed as inhibition of Phenylephrine induced calcium response upto 100 uM incubated for 10 mins by calcium mobilization assay. Format: functional, cell-based.
For assay [6], the system named is Staphylococcus aureus. The assay is described as follows: Antibacterial activity against methicillin-resistant Staphylococcus aureus […] assessed as bacterial growth inhibition measured after 24 hrs by CLSI based two-fold serial dilution method. The class given is functional.
Assay [7] concerns Staphylococcus aureus. Nature of the assay: Antibacterial activity against methicillin-sensitive Staphylococcus aureus ATCC 29213 assessed as bacterial growth inhibition measured after 24 hrs by CLSI based two-fold serial dilution method. Format: functional.
In assay [8] the test system is Staphylococcus aureus. The assay is described as follows: Antibacterial activity against vancomycin-intermediate Staphylococcus aureus ATCC 700787 assessed as bacterial growth inhibition incubated for 24 hrs by CLSI based two-fold serial dilution method. Format: functional.
Assay [9] deals with Nakaseomyces glabratus. The assay is described as follows: Antifungal activity against Candida glabrata ATCC 15126 assessed as reduction in microbial growth incubated for 24 hrs by CLSI based broth micro-dilution method. Format: functional.
The nature of assay [10]: Antioxidant activity assessed as DPPH radical scavenging activity measured after 30 mins by UV-visible spectrophotometric analysis. The class given is functional.
Assay [11] can be described thus: Antioxidant activity assessed as ABTS radical scavenging activity incubated for 30 mins by UV-visible spectrphotometric analysis. Format: functional.
Assay [12] concerns the target T1, Prostaglandin G/H synthase 2 (Homo sapiens, UniProt P35354).
T1 sequence (P35354 whole entry): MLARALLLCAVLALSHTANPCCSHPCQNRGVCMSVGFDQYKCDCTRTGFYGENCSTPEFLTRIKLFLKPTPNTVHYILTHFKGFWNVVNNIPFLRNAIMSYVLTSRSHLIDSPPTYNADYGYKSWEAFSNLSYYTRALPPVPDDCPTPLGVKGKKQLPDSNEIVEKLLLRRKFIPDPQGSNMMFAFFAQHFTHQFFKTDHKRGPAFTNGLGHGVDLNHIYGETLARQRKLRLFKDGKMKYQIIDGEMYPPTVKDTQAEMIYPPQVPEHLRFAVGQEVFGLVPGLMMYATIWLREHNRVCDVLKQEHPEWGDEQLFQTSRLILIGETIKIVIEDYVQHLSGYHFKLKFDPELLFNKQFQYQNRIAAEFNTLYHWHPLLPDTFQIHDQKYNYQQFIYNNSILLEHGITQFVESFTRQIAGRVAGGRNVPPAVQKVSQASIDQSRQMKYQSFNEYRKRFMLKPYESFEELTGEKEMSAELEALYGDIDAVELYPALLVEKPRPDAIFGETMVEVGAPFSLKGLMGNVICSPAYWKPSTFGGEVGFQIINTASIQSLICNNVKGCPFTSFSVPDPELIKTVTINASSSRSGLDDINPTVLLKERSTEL
Nature of the assay: Inhibition of human recombinant COX-2 using arachidonic acid as substrate preincubated with compound for 15 mins followed by substrate addition and measured after 15 mins by fluorescence based analysis.

The target in assay [13] is Tyrosine-protein kinase JAK3 (Homo sapiens, UniProt P52333). Nature of the assay: Inhibition of JAK3 (unknown origin) preincubated for 1 hr followed by substrate addition and measured after 1 hr in the presence of ATP by FRET-based Z'-Lyte assay.
Assay [14] has as its system RAW264.7. The assay is described as follows: Anti-inflammatory activity in mouse RAW264.7 cells assessed as inhibition of LPS-induced TNFalpha production at 20 uM preincubated for 1 hr followed by LPS addition and measured after 24 hrs. Format: functional. Also on record: scale not given: the % may be the effect or the level left. The note with it: time 25 hrs.
A short description of assay [15]: Immunosuppressive activity in Kunming mouse splenocyte assessed as reduction in ConA-stimulated T-lymphocytes proliferation incubated for 72 hrs by CCK-8 assay. The class given is functional, cell-based. As to conditions: T-cell. On the technique in general: Formazan colour is commonly taken as a measure of viable cells.
In assay [16] the test system is Staphylococcus aureus. The assay is described as follows: Antibacterial activity against Staphylococcus aureus 01-159 assessed as bacterial growth inhibition measured after 16 to 18 hrs by Mueller-Hinton broth based microdilution method. Format: functional. As to conditions: time 16-18 hrs. Background: In broth dilution the organism is exposed to a series of concentrations in liquid medium.

In assay [17] the test system is Streptococcus pneumoniae. Nature of the assay: Antimicrobial activity against Streptococcus pneumoniae 02-123 assessed as reduction in microbial growth incubated for 16 to 18 hrs by Mueller-Hinton broth based microdilution method. Format: functional. As to conditions: time 16-18 hrs.
The test system of assay [18] is Klebsiella pneumoniae. Nature of the assay: Antimicrobial activity against Klebsiella pneumoniae 02-63 assessed as reduction in microbial cell growth incubated for 16 to 18 hrs by Mueller-Hinton broth based microdilution method. Format: functional. The note with it: time 16-18 hrs.
Assay [19] relates to Influenza A virus. Nature of the assay: Antiviral activity against Influenza A virus H1N1 infected in dog MDCK cells assessed as inhibition in virus-induced cytopathic effect incubated for 48 hrs by SRB assay. Format: functional, organism-based.
Assay [20] concerns the target Alpha amylase (Homo sapiens) (UniProt P0DUB6). Nature of the assay: Inhibition of alpha-amylase (unknown origin) at 0.556 ug/ml relative to control. The note with it: dose 0.556 µg/ml.
The test system of assay [21] is Candida albicans. Nature of the assay: Antifungal activity against Candida albicans Y0109 assessed as reduction in microbial growth by micro-broth dilution method. The class given is functional.
The subject of assay [22] is Candida albicans. Nature of the assay: Antifungal activity against Candida albicans SC5314 assessed as reduction in fungal growth incubated for 24 hrs by serial dilution method. The class given is functional.
Assay [23] deals with Cryptococcus neoformans. The assay is described as follows: Antifungal activity against Cryptococcus neoformans assessed as reduction in fungal cell growth incubated for 24 hrs by microbroth dilution method. The class given is functional.
Assay [24] concerns RAW264.7. The assay is described as follows: Anti-inflammatory activity against mouse RAW264.7 cells assessed as inhibition of LPS-induced NO production at 10 uM preincubated with compound for 2 hrs followed by LPS stimulation and measured after 24 hrs by Griess reagent based analysis. The class given is functional, cell-based.
In assay [25] the test system is RAW264.7. Nature of the assay: Antiinflammatory activity against LPS-induced mouse RAW264.7 cells assessed as maximal inhibition of TNF-alpha production at 10 to 100 nM incubated for 48 hrs by ELISA analysis relative to control. The class given is functional. The note with it: dose 10-100 nM. The arrangement: scale not given: the % may be the effect or the level left.

Assay [26] relates to HeLa. Nature of the assay: Cytotoxicity against human HeLa cells assessed as reduction in cell viability measured after 24 hrs by MTT assay. The class given is functional, cell-based.
In assay [27] the test system is RAW264.7. The assay is described as follows: Anti-inflammatory activity against mouse RAW264.7 cells assessed as inhibition of LPS-induced NO production at 25 uM. Format: functional. Also on record: scale not given: the % may be the effect or the level left.
For assay [28], the target named is Alpha-2B adrenergic receptor (Homo sapiens, UniProt P18089). Nature of the assay: Binding affinity to alpha2B receptor (unknown origin) assessed as inhibition constant.
Chain of Alpha-2B adrenergic receptor (P18089 whole entry): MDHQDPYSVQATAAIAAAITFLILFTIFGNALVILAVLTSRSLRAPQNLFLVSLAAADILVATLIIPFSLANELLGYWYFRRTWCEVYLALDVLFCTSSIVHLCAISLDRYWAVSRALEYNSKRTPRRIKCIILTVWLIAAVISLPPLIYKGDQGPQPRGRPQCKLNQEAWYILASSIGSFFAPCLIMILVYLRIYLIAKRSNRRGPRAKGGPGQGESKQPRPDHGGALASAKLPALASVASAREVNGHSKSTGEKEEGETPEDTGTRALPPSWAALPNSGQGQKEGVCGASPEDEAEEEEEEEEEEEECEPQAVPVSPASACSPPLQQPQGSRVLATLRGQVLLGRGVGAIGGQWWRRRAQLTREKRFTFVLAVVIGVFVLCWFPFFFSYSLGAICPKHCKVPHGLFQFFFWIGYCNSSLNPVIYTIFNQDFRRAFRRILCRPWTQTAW

Chain of Tyrosine-protein kinase JAK3 (P52333 whole entry): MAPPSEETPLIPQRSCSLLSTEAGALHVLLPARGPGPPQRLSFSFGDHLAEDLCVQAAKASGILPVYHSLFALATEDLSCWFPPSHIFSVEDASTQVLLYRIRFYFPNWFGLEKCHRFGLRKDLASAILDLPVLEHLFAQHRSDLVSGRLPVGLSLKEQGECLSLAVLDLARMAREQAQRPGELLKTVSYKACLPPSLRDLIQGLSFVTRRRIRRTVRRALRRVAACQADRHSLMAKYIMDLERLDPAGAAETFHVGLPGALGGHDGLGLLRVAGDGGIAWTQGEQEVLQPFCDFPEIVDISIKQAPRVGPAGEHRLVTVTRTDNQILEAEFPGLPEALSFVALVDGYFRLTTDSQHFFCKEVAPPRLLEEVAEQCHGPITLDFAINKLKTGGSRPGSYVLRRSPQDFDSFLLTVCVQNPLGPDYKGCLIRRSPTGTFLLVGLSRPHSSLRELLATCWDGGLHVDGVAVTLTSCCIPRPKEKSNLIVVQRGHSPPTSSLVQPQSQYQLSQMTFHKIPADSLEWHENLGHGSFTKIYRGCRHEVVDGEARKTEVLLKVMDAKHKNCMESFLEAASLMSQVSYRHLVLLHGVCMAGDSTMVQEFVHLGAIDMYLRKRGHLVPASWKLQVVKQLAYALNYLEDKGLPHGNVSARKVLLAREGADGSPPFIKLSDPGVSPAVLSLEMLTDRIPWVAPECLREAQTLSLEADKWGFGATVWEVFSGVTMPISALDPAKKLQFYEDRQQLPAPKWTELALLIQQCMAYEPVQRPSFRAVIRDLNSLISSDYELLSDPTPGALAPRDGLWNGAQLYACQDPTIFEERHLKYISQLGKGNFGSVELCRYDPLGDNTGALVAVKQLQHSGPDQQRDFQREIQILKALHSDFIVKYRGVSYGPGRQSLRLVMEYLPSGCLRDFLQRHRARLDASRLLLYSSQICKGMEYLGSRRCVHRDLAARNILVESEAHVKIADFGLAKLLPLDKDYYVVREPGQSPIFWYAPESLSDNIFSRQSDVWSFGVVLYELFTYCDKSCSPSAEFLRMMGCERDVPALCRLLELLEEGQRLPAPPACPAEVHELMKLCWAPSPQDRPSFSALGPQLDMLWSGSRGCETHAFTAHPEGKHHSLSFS
Chain of Beta-2 adrenergic receptor (Homo sapiens) (P07550 whole entry, looked up): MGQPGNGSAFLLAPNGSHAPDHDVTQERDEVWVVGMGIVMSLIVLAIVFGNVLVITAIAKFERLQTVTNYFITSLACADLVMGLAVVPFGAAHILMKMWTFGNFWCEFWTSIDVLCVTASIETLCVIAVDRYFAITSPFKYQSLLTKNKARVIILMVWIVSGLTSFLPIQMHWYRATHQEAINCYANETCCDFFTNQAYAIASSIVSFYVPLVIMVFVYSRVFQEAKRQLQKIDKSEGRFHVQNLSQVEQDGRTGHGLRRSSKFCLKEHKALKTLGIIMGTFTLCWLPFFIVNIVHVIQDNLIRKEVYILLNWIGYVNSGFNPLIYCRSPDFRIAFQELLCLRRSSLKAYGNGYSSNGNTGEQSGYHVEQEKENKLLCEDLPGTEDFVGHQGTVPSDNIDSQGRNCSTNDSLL
Chain of Beta-1 adrenergic receptor (Homo sapiens) (P08588 whole entry, looked up): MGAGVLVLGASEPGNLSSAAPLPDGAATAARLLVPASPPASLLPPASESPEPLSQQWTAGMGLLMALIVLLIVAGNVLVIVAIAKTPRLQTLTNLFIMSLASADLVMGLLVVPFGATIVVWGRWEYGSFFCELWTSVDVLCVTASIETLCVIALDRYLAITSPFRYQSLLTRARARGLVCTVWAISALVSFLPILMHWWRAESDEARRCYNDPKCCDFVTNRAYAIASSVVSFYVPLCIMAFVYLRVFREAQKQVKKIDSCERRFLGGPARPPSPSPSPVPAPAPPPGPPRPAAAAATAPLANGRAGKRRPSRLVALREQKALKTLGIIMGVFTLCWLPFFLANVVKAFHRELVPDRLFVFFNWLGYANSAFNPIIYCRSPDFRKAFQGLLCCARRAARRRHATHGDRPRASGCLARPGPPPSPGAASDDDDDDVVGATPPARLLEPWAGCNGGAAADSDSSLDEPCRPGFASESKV
Chain of Alpha-1A adrenergic receptor (Homo sapiens) (P35348 whole entry): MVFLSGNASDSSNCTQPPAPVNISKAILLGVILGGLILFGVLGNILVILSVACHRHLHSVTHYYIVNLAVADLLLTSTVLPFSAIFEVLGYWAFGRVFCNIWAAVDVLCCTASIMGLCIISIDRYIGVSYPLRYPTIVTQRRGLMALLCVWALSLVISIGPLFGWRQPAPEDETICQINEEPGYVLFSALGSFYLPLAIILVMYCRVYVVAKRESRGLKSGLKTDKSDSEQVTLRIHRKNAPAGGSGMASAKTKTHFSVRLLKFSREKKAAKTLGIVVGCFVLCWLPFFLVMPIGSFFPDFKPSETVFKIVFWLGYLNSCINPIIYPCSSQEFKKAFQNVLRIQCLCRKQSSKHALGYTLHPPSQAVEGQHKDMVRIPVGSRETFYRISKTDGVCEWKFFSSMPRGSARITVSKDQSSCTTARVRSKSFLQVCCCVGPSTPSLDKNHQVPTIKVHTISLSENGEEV
Chain of Alpha amylase (Homo sapiens) (P0DUB6 whole entry, looked up): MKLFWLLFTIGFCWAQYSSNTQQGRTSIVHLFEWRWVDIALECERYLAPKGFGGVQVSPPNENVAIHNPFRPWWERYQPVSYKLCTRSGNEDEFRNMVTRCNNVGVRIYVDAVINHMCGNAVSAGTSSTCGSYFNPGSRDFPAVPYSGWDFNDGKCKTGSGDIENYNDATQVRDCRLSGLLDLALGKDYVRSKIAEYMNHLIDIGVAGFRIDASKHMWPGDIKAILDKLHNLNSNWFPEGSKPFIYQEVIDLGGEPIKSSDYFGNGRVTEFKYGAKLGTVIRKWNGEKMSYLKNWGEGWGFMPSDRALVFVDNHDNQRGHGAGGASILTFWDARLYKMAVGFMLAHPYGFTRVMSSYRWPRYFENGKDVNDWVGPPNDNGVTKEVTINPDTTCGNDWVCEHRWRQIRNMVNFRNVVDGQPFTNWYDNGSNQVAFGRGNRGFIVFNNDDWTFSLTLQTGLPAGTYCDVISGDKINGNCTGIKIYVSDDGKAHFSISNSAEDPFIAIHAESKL

For `OC[C@H]1O[C@@H](NCCc2ccc(O)c(O)c2)[C@H](O)[C@@H](O)[C@@H]1O`, the 50% inhibitory concentration (IC50) (as a rule, the point on the concentration scale where inhibition reaches its midpoint) in assay [1] was 0.82 µM.
With `Oc1cc2c(cc1O)C(c1ccco1)=NCC2`, in assay [2], the Activity is 13.4%.
With `O=C1NCCc2cc(O)c(O)cc21`, the concentration for a half-maximal effect (EC50) (commonly the midpoint of the concentration-response curve) in assay [3] was 9.98 µM.
Regarding `Oc1cc2c(cc1O)[C@@H](Cc1ccccc1)NCC2`, the inhibition (commonly the percentage by which the read-out fell short of the control) in [4] worked out at 80.3%; in assay [5] it was 6.1%.
Regarding `O=C1N[C@@H](Cc2ccc(O)c(O)c2)C(=O)N2CCC[C@@H]12`, the minimum inhibitory concentration (MIC) (commonly the smallest concentration in the dilution series that meets the test's criterion for growth inhibition) is 256 µg/mL (≈ 927 µM) in [6], 256 µg/mL (≈ 927 µM) in [7], 256 µg/mL (≈ 927 µM) in assay [8] and 128 µg/mL in [9]. The 50% effective concentration (EC50) turned out to be 12.98 µg/mL (≈ 47 µM) in assay [10] and 1.71 µg/mL (≈ 6.19 µM) in [11].
For `CC(=O)NCCc1ccc(NC(=O)c2ccc(O)c(O)c2)c(O)c1`, the IC50 came out at 6.86 µM in [12] and 12.2 µM in assay [13].
For the compound `CC(=O)NCCc1cc(O)c(O)cc1S(C)(=O)=O`, the Activity in [14] is listed as 52.77%. The concentration for half-maximal inhibition (IC50) in [15] amounted to 33 µM.
As for `O=C1CC[C@H]2c3cc(O)c(O)cc3CCN12`, the results for the minimum inhibitory concentration (MIC) in [16], in [17] and in assay [18] were 32 µg/mL (≈ 146 µM), 128 µg/mL and 128 µg/mL, respectively. Besides, the values for the half-inhibitory concentration (IC50) in assay [19] and in assay [24] were 56.8 µg/mL (≈ 259 µM) and 30.3 µM, respectively. For the same compound, in assay [20], the inhibition stood at 17%. The MIC80 (usually an inhibitory concentration at the 80% level, which refers to growth in some studies and to a panel of isolates in others) is 32 µg/mL in assay [21], more than 64 µg/mL in assay [22] and 32 µg/mL (≈ 146 µM) in [23].
As for `O=C(/C=C/c1ccc(O)c(O)c1)N[C@@H](Cc1ccc(O)c(O)c1)C(=O)O`, the Activity in assay [25] was 80%.
For the compound `Oc1cc2c(cc1O)[C@@H](C1=C[C@@]3(O)CC/C=C\CCCCN4CC[C@@H]1[C@]1(C[C@@H]5/C=C\CCCCN5[C@H]13)C4)NCC2`, the IC50 in assay [26] came out at 4.2 µM.
Turning to `CC(=O)N/C=C/c1ccc(O)c(O)c1`, the Activity in assay [27] stood at 32.9%.
Turning to `Oc1cc2c(cc1O)[C@H](C1=C[C@@]3(O)CC/C=C\CCCCN4CC[C@@H]1[C@]1(C[C@@H]5/C=C\CCCCN5[C@H]13)C4)NCC2`, in assay [26], the IC50 was found to be 5.7 µM.
Consider `COc1cc(CCN(C)C)c2c(c1OC)SC(CCNC(=N)N)(C1=NCCc3cc(O)c(O)cc31)S2` (centres undefined), for which the inhibition constant (Ki) (commonly the equilibrium dissociation constant of an inhibitor or competing ligand from its target) in assay [28] was determined as 5.9 µM.
